Data on 33 compounds can be found in patent US7618961B2, “Inhibitors of 11-beta-hydroxy steroid dehydrogenase type 1” (Biovitrum AB, priority 2000, dated 2009).

Counter-ions that a name gives are not always drawn.

Usually melting point stands for the temperature, or range, at which the solid turns liquid.

In turn, `O=C(O)Cc1csc(NS(=O)(=O)c2cc(Cl)sc2Cl)n1` (as salt: salt) [Example 85A, 2-(2-{[(2,5-Dichloro-3-thienyl)sulfonyl]amino}-1,3-thiazol-4-yl)acetic acid] came in with a melting point of 174 °C.
`Cc1c(Cl)cccc1S(=O)(=O)Nc1nc(CC(=O)O)cs1` (as salt: salt) [Example 87A, 2-(2-{[(3-Chloro-2-methylphenyl)sulfonyl]amino}-1,3-thiazol-4-yl)acetic acid] gave a melting point of 198 °C.
The compound `CCOC(=O)Cc1csc(NS(=O)(=O)c2ccc(C)cc2)n1` [Example 5A, Ethyl 2-(2-(((4-methylphenyl)sulfonyl)amino)-1,3-thiazol-4-yl)acetate] registered a melting point of 173 °C.
As to `CCOC(=O)Cc1csc(NS(=O)(=O)c2cccc(Cl)c2C)n1` [Example 8A, Ethyl 2-(2-{[(3-chloro-2-methylphenyl)sulfonyl]amino}-1,3-thiazol-4-yl)acetate], the melting point was 154 °C.
Take `CCOC(=O)Cc1csc(NS(=O)(=O)c2ccc(-c3ccccc3)cc2)n1` [Example 10A, Ethyl 2-{2-[([1,1′-biphenyl]-4-ylsulfonyl)amino]-1,3-thiazol-4-yl}acetate]: the melting point stood at 182 °C.
The compound `CCOC(=O)Cc1csc(NS(=O)(=O)c2cccc(Br)c2)n1` [Example 12A, Ethyl 2-(2-{[(3-bromophenyl)sulfonyl]amino}-1,3-thiazol-4-yl)acetate] came in with a melting point of 155 °C.
In turn, `CCOC(=O)Cc1csc(NS(=O)(=O)c2ccccc2C(F)(F)F)n1` [Example 25A, Ethyl [2-({[2-(trifluoromethyl)phenyl]sulfonyl}amino)-1,3-thiazol-4-yl]acetate] came in with a melting point of 171 °C.
Turning to `CCOC(=O)Cc1csc(NS(=O)(=O)c2cccc(C(F)(F)F)c2)n1` [Example 26A, Ethyl [2-({[3-(trifluoromethyl)phenyl]sulfonyl}amino)-1,3-thiazol-4-yl]acetate], the melting point is 145 °C.
The figure for `CCOC(=O)Cc1csc(NS(=O)(=O)c2ccc(C(F)(F)F)cc2)n1` [Example 27A, Ethyl [2-({[4-(trifluoromethyl)phenyl]sulfonyl}amino)-1,3-thiazol-4-yl]acetate] is 174 °C.
Consider `CCOC(=O)Cc1csc(NS(=O)(=O)c2ccc(Br)cc2)n1` [Example 28A, Ethyl 2-(2-{[(4-bromophenyl)sulfonyl]amino}-1,3-thiazol-4-yl)acetate], for which the melting point was determined as 183 °C.
The figure for `CCOC(=O)Cc1csc(NS(=O)(=O)c2cc(Cl)ccc2Cl)n1` [Example 77A, Ethyl (2-{[(2,5-dichlorophenyl)sulfonyl]amino}-1,3-thiazol-4-yl)acetate] is 171 °C.
The compound `Cc1ccc(S(=O)(=O)Nc2nc(CC(=O)O)cs2)cc1` [Example 84A, 2-(2-{[(4-Methylphenyl)sulfonyl]amino}-1,3-thiazol-4-yl)acetic acid] displayed a melting point of 187 °C.
Turning to `O=C(O)Cc1csc(NS(=O)(=O)c2ccccc2Cl)n1` [Example 86A, (2-{[(2-Chlorophenyl)sulfonyl]amino}-1,3-thiazol-4-yl)acetic acid], the melting point came out at 176 °C.
Regarding `Cc1c(Cl)cccc1S(=O)(=O)Nc1nc(CC(=O)Oc2ccccc2)cs1` [Example 89A, Phenyl 2-(2-{[(3-chloro-2-methylphenyl)sulfonyl]amino}-1,3-thiazol-4-yl)acetate], the melting point turned out to be 189 °C.
The compound `COC(=O)Cc1csc(NS(=O)(=O)c2cccc(Cl)c2C)n1` [Example 90A, Methyl (2-{[(3-chloro-2-methylphenyl)sulfonyl]amino}-1,3-thiazol-4-yl)acetate] displayed a melting point of 187 °C.
In turn, `CNC(=O)Cc1csc(NS(=O)(=O)c2cc(Cl)sc2Cl)n1` [Example 99A, 2-(2-{[(2,5-Dichloro-3-thienyl)sulfonyl]amino}-1,3-thiazol-4-yl)-N-methylacetamide] came in with a melting point of 183 °C.
Consider `CCNC(=O)Cc1csc(NS(=O)(=O)c2ccc(F)cc2F)n1` [Example 102A, 2-(2-{[(2,4-Difluorophenyl)sulfonyl]amino}-1,3-thiazol-4-yl)-N-ethylacetamide], for which the melting point amounted to 150 °C.
Compound `CNC(=O)Cc1csc(NS(=O)(=O)c2cccc(Cl)c2C)n1` [Example 106A, 2-(2-{[(3-Chloro-2-methylphenyl)sulfonyl]amino}-1,3-thiazol-4-yl)-N-methylacetamide] showed a melting point of 165 °C.
In turn, `CCNC(=O)Cc1csc(NS(=O)(=O)c2cccc(Cl)c2C)n1` [Example 107A, 2-(2-{[(3-Chloro-2-methylphenyl)sulfonyl]amino}-1,3-thiazol-4-yl)-N-ethylacetamide] showed a melting point of 96 °C.
Take `Cc1c(Cl)cccc1S(=O)(=O)Nc1nc(CC(=O)Nc2ccccc2)cs1` [Example 108A, 2-(2-{[(3-Chloro-2-methylphenyl)sulfonyl]amino}-1,3-thiazol-4-yl)-N-phenylacetamide]: the melting point was determined as 202 °C.
The compound `Cc1c(Cl)cccc1S(=O)(=O)Nc1nc(CC(=O)NC(c2ccccc2)c2ccccc2)cs1` [Example 113A, N-Benzhydryl-2-(2-{[(3-chloro-2-methylphenyl)sulfonyl]amino}-1,3-thiazol-4-yl)acetamide] gave a melting point of 200 °C.
Compound `Cc1c(Cl)cccc1S(=O)(=O)Nc1nc(CC(=O)N(C)C)cs1` [Example 131A, 2-(2-{[(3-Chloro-2-methylphenyl)sulfonyl]amino}-1,3-thiazol-4-yl)-N,N-dimethylacetamide] came in with a melting point of 84 °C.
The figure for `Cc1c(Cl)cccc1S(=O)(=O)Nc1nc(CC(=O)N2CCCC2)cs1` [Example 142A, 3-Chloro-2-methyl-N-{4-[2-oxo-2-(1-pyrrolidinyl)ethyl]-1,3-thiazol-2-yl}benzenesulfonamide] is 107 °C; for `Cc1c(Cl)cccc1S(=O)(=O)Nc1nc(CC(=O)N2CCOCC2)cs1` [Example 148A, 3-Chloro-2-methyl-N-{4-[2-(4-morpholinyl)-2-oxoethyl]-1,3-thiazol-2-yl}benzenesulfonamide] it is 208 to 209 °C; for `Cc1cc(Cl)cc(Cl)c1S(=O)(=O)Nc1nc(CC(=O)N2CCOCC2)c(C)s1` [Example 159A, 2,4-Dichloro-6-methyl-N-{5-methyl-4-[2-(4-morpholinyl)2-oxoethyl]-1,3-thiazol-2-yl}benzenesulfonamide] it is 186 to 187 °C.
Compound `Cc1sc(NS(=O)(=O)c2ccc(-c3ccccc3)cc2)nc1CC(=O)N1CCOCC1` [Example 160A, N-{5-methyl-4-[2-(4-morpholinyl)-2-oxoethyl]-1,3-thiazol-2-yl}[1,1′-biphenyl]-4-sulfonamide] had a melting point of 204 to 206 °C.
`Cc1sc(NS(=O)(=O)c2c(Cl)cc(Cl)cc2Cl)nc1CC(=O)N1CCOCC1` [Example 161A, 2,4,6-trichloro-N-{5-methyl-4-[2-(4-morpholinyl)-2-oxoethyl]-1,3-thiazol-2-yl}benzenesulfonamide] registered a melting point of 216 to 217 °C.
In turn, `Cc1sc(NS(=O)(=O)c2cccc(Cl)c2C)nc1CC(=O)N1CCOCC1` [Example 162A, 3-chloro-2-methyl-N-{5-methyl-4-[2-(4-morpholinyl)-2-oxoethyl]-1,3-thiazol-2-yl}benzenesulfonamide] showed a melting point of 194 to 195 °C.
In the case of `Cc1c(Cl)cccc1S(=O)(=O)Nc1nc(CC(=O)N2CCSCC2)cs1` [Example 165A, 3-Chloro-2-methyl-N-{4-[2-oxo-2-(4-thiomorpholinyl)ethyl]-1,3-thiazol-2-yl}benzenesulfonamide], the melting point lay in the range of 103 to 106 °C.
Consider `CCOCCc1nc(NS(=O)(=O)c2cccc(Cl)c2C)sc1CN(C)C` [Example 190A, 3-Chloro-N-[5-[(dimethylamino)methyl]-4(2-ethoxyethyl)-1,3-thiazol-2-yl]-2-methylbenzenesulfonamide], for which the melting point lay within 152 to 153 °C.
`CCC(=O)OCCc1csc(NS(=O)(=O)c2cccc(Cl)c2C)n1` [Example 192B, 2-(2-{[(3-Chloro-2-methylphenyl)sulfonyl]amino}-1,3-thiazol-4-yl)ethyl propionate]: the melting point amounted to 122 °C.
Compound `Cc1c(Cl)cccc1S(=O)(=O)Nc1nc(CCOC(=O)C(C)C)cs1` [Example 193A, 2-(2-{[(3-Chloro-2-methylphenyl)sulfonyl]amino}-1,3-thiazol-4-yl)ethyl 2-methylpropanoate] yielded a melting point of 118 °C.
The result for `Cc1c(Cl)cccc1S(=O)(=O)Nc1nc(CCOC(=O)N2CCOCC2)cs1` [Example 196A, 2-(2-{[(3-Chloro-2-methylphenyl)sulfonyl]amino}-1,3-thiazol-4-yl)ethyl 4-morpholinecarboxylate] reads 161 °C.
